Test results: patent US11046709B2, “Fused 1,4-diazepines as BET bromodomain inhibitors” (THE REGENTS OF THE UNIVERSITY OF MICHIGAN, priority 2017, dated 2021)
Where two headings read alike, the source gives them in different places.

Columns and labels:
MOLM-13 = experiment: Cell growth inhibition, 4-day proliferation assay, MOLM-13; assay type: cell-based; conditions: Homo sapiens, MOLM-13, 96 h, read-out: Cell IC50 (nM) MOLM13
Protocol: (§1) The effect of representative Compounds of the Disclosure on cell viability was determined in a 4-day proliferation assay. Cells were maintained in the appropriate culture medium with 100/0 FBS at 37° C. and an atmosphere of 5% CO2. All the cell lines were used within three months of thawing fresh vials.
(§2) In general, cells were seeded in 96-well flat bottom (Corning COSTAR, Corning, N.Y., cat #3595) or white opaque cell culture plates (BD Falcon, cat #353296) at a density of 3,000-10,000 cells/well in 75 μl of culture medium. Compounds were serially diluted in the appropriate medium, and 75 μl of the diluted compounds were added to the appropriate wells of the cell plate. After the addition of compounds, the cells were incubated at 37° C. in an atmosphere of 5% CO2 for 4 days. Cell viability was determined using the CellTiter-Glo® Luminescent Cell Viability Assay Kit (Promega, Madison, Wis.) for leukemia cells and WST (2-(2-methoxy-4-nitrophenyl)-3-(4-nitrophenyl)-5-(2,4-disulfophenyl)-2H-tetrazolium, monosodium salt) Cell Counting-8 Kit (Dojindo Molecular Technologies, Inc., Rockville, Md.) for adherent cells according to the manufacturers' instructions.
(§3) For WST assay (adherent cells), WST-8 reagent was added to each well at a final concentration of 10% (v/v), and then the plates were incubated at 37° C. for 1-2 hours for color development. The absorbance was measured at 450 nm using a SPECTRAmax PLUS plate reader (Molecular Devices, Sunnyvale, Calif.). The readings were normalized to the DMSO-treated cells and the half maximal inhibitory concentration (IC50) was calculated by nonlinear regression (four parameters sigmoid fitted with variable slope, least squares fit, and no constraint) analysis using the GraphPad Prism 5 software (GraphPad Software, La Jolla, Calif.).
(§4) For CellTiter-Glo assay (suspension cells), 100 μl of CellTiter-Glo® Reagent was added to each well, and then the plates were incubated at room temperature for 10-20 minutes. The luminescent signal was measured using a Tecan Infinite M1000 multimode microplate reader (Tecan, Morrisville, N.C.). The readings were normalized to the DMSO-treated cells and the IC50 was calculated by nonlinear regression (four parameters sigmoid fitted with variable slope, least squares fit, and no constraint) analysis using the GraphPad Prism 5 software. See US 2014/0256706.
(§5) For a number of representative compounds in Table 5, their IC50 values in cell growth inhibition activity in the RS4;11 and MOLM-13 human leukemia cell lines and the MDA-MB-231 breast cancer cell line were evaluated using the WST-8 assay described in EXAMPLE 7, with the data shown in Table 7.

MDA-MB-231 = experiment: Cell growth inhibition, 4-day proliferation assay, MDA-MB-231; assay type: cell-based; conditions: Homo sapiens, MDA-MB-231, 96 h, read-out: Cell IC50 (nM) MDA-MB-231
Protocol: as §1, §2, §3, §4, §5

recombinant BRD4 BD2 = biological target: T1, recombinant BRD4 BD2 (Homo sapiens, UniProt O60885); experiment: Competitive fluorescence-polarization (FP) binding assay, BRD4 BD2
T1 construct: for recombinant BRD4 BD1 and BRD4 BD2 proteins
Protocol: Fluorescence Polarization (FP) competitive binding studies were carried out using a FAM labeled fluorescent probe, see, e.g., Cpd. No. 350 of US 2014/0256706, to determine binding affinities of representative Compounds of the Disclosure for recombinant BRD4 BD1 and BRD4 BD2 proteins. Equilibrium dissociation constants (Kd) values of the fluorescent probe to BRD4 BD1 and BD2 proteins were determined from protein saturation experiments by monitoring the total fluorescence polarization of mixtures composed with the fluorescent probe at a fixed concentration and proteins with increasing concentrations up to full saturation. Serial dilutions of testing proteins were mixed with the fluorescent probe to a final volume of 200 μl in the assay buffer (100 mM phosphate buffer, pH=6.5, 0.01% Triton X-100 (Sigma, 282103) being added right before assays). Final fluorescent probe concentration was 1.5 nM for both proteins. Plates were incubated at room temperature for 30 minutes with gentle shaking to assure equilibrium. FP values in millipolarization units (mP) were measured using the Infinite M-1000 plate reader (Tecan U.S., Research Triangle Park, N.C.) in Microfluor 1 96-well, black, round-bottom plates (Thermo Scientific, Waltham, Mass.) at an excitation wavelength of 485 nm and an emission wavelength of 530 nm. Kd values of the fluorescent probe, which were calculated by fitting the sigmoidal dose-dependent FP increases as a function of protein concentrations using Graphpad Prism 6.0 software (Graphpad Software, San Diego, Calif.), are 5.5 and 3.0 nM to BDR4 BD1 and 2, respectively.
The IC50 and Ki values of compounds were determined in a competitive binding experiment. See US 2014/0256706. Mixtures of 10 μl of the tested compounds in assay buffer with 40% Ethylene Glycol and 190 μl of preincubated protein/probe complex solution in the assay buffer (100 mM potassium phosphate, pH 6.5, 0.01% Triton X-100) were added into assay plates which were incubated at room temperature for 30 minutes with gentle shaking. Final concentrations of proteins were 10 and 6 nM in assays for BRD4 BD1 and BD2, respectively. Final probe concentration is 1.5 nM in both assays. Negative controls containing protein/probe complex only (equivalent to 0% inhibition), and positive controls containing only free probes (equivalent to 100% inhibition), were included in each assay plate. FP values were measured as described above. IC50 values were determined by nonlinear regression fitting of the competition curves. Instead of being calculated from IC50 values as described before. Ki values of competitive inhibitors were obtained directly by nonlinear regression fitting as well, based upon the Kd values of the probe to different proteins, and concentrations of the proteins and probes in the competitive assays (US 2014/0256706; Wang, FEBS Lett. 360:111 (1995); Zhang et al., Analytical Biochemistry, 331:138 (2004)).
Representative compounds in Table 5 were evaluated for their binding affinities to BRD4 BD1 and BD2 proteins using the Competitive Fluorescence-Polarization (FP) Assays described in Example 6, with the data included in Table 6.

[1] = 4-day proliferation assay, Table 4

Row | SMILES | IC50 (MOLM-13) [nM] | IC50 (MDA-MB-231) [nM] | IC50 (recombinant BRD4 BD2) [nM] | IC50 (MOLM-13; [1]) [nM] | IC50 (MDA-MB-231; [1]) [nM] | IC50 (recombinant BRD4 BD2; competitive FP, Table 3, read-out: Binding Affinity BRD4-BD2 IC50) [nM]
1 | Cc1c(C#Cc2cnn(CC(=O)O)c2)sc2c1C(c1ccc(Cl)cc1)=N[C@@H](C)c1nnc(C)n1-2 [Cpd. No. 14, (S)-2-(4-((4-(4-chlorophenyl)-3,6,9-trimethyl-6H-thieno[3,2-f][1,2,4]triazolo[4,3-a][1,4]diazepin-2-yl)ethynyl)-1H-pyrazol-1-yl)acetic acid] | 964 | 965 | 12.3 | – | – | –
2 | Cc1c(C#Cc2ccccn2)sc2c1C(c1ccc(Cl)cc1)=N[C@@H](C)c1nnc(C)n1-2 [Cpd. No. 2, (S)-4-(4-chlorophenyl)-3,6,9-trimethyl-2-(pyridin-2-ylethynyl)-6H-thieno[3,2-f][1,2,4]triazolo[4,3-a][1,4]diazepine] | 15.7 ± 0.43 | 31 | 14.5 | – | – | –
3 | Cc1c(C#Cc2ccc(CCCCO)cn2)sc2c1C(c1ccc(Cl)cc1)=N[C@@H](C)c1nnc(C)n1-2 [Cpd. No. 13] | – | – | – | 23 | 84.4 | 11.1
4 | Cc1c(C#Cc2ccc(N)nc2)sc2c1C(c1ccc(Cl)cc1)=N[C@@H](C)c1nnc(C)n1-2 [Cpd. No. 18, (S)-5-((4-(4-chlorophenyl)-3,6,9-trimethyl-6H-thieno[3,2-f][1,2,4]triazolo[4,3-a][1,4]diazepin-2-yl)ethynyl)pyridin-2-amine] | 9.63 | 2.44 | 8.84 | – | – | –
5 | Cc1c(C#CCCCO)sc2c1C(c1ccc(Cl)cc1)=N[C@@H](C)c1nnc(C)n1-2 [Cpd. No. 11, (S)-5-(4-(4-chlorophenyl)-3,6,9-trimethyl-6H-thieno[3,2-f][1,2,4]triazolo[4,3-a][1,4]diazepin-2-yl)pent-4-yn-1-ol] | 6.87 | < 1.7 | 7.22 | – | – | –
6 | Cc1c(C#CCO)sc2c1C(c1ccc(Cl)cc1)=NCc1nnc(C)n1-2 [Cpd. No. 9, 3-(4-(4-chlorophenyl)-3,9-dimethyl-6H-thieno[3,2-f][1,2,4]triazolo[4,3-a][1,4]diazepin-2-yl)prop-2-yn-1-ol] | 215 | 412 | 126 | – | – | –
7 | Cc1c(C#CCO)sc2c1C(c1ccc(Cl)cc1)=N[C@@H](C)c1nnc(C)n1-2 [Cpd. No. 10, (S)-3-(4-(4-chlorophenyl)-3,6,9-trimethyl-6H-thieno[3,2-f][1,2,4]triazolo[4,3-a][1,4]diazepin-2-yl)prop-2-yn-1-ol] | 30.5 | 31.8 | 11.8 | – | – | –
8 | Cc1c(C#Cc2cccnc2)sc2c1C(c1ccc(Cl)cc1)=NCc1nnc(C)n1-2 [Cpd. No. 3, 4-(4-chlorophenyl)-3,9-dimethyl-2-(pyridin-3-ylethynyl)-6H-thieno[3,2-f][1,2,4]triazolo[4,3-a][1,4]diazepine] | 145 ± 13.7 | 151 ± 19 | 124 | – | – | –
9 | Cc1c(C#Cc2cncnc2)sc2c1C(c1ccc(Cl)cc1)=N[C@@H](C)c1nnc(C)n1-2 [Cpd. No. 6, (S)-4-(4-chlorophenyl)-3,6,9-trimethyl-2-(pyrimidin-5-ylethynyl)-6H-thieno[3,2-f][1,2,4]triazolo[4,3-a][1,4]diazepine] | 15.6 ± 1.7 | 17.8 ± 19 | 16 | – | – | –
10 | Cc1c(C#Cc2cnn(CCCO)c2)sc2c1C(c1ccc(Cl)cc1)=N[C@@H](C)c1nnc(C)n1-2 [Cpd. No. 12, (S)-3-(4-((4-(4-chlorophenyl)-3,6,9-trimethyl-6H-thieno[3,2-f][1,2,4]triazolo[4,3-a][1,4]diazepin-2-yl)ethynyl)-1H-pyrazol-1-yl)propan-1-ol] | 3.74 | 31.5 | 10.8 | – | – | –
11 | Cc1c(C#CCN(C)C)sc2c1C(c1ccc(Cl)cc1)=N[C@@H](C)c1nnc(C)n1-2 [Cpd. No. 16, (S)-3-(4-(4-chlorophenyl)-3,6,9-trimethyl-6H-thieno[3,2-f][1,2,4]triazolo[4,3-a][1,4]diazepin-2-yl)-N,N-dimethylprop-2-yn-1-amine] | 27.9 | 40.9 | 58.9 | – | – | –
